In patent US10689339B2, “Pyrrolidine derivatives” (Hoffmann-La Roche Inc., priority 2016, dated 2020) one finds IC50 data, which are given here for 21 molecules.

The structures appear in SMILES notation.

Usually IC50 stands for the concentration at which inhibition is half-maximal. Lower therefore signals greater potency.

Chain of human Cat S (P25774 115-331): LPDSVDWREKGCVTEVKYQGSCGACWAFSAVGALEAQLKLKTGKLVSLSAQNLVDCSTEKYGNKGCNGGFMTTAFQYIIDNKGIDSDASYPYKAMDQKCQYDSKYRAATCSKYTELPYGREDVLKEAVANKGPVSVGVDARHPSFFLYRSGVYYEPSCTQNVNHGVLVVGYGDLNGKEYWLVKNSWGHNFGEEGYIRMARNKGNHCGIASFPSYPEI

This test has as its target human Cat S (Homo sapiens (Human), UniProt P25774). Nature of the test: Cathepsin enzyme inhibition assay (fluorogenic peptide substrate Z-Val-Val-Arg-AMC). It counts as biochemical. The conditions noted are these: enzyme 1 nM, substrate 20 μM, pH 6.5. As to the method: Cathepsin Enzyme Inhibition Assay
Enzyme activity is measured by observing the increase in fluorescence intensity caused by cleavage of a peptide substrate containing a fluorophore whose emission is quenched in the intact peptide.
Assay buffer: 100 mM potassium phosphate pH 6.5, EDTA-Na 5 mM, Triton X-100 0.001%, DTT 5 mM.
Enzymes (all at 1 nM): human and mouse Cathepsin S, Cat K, Cat B, Cat L.
Substrate (20 μM): Z-Val-Val-Arg-AMC, except for Cat K which uses Z-Leu-Arg-AMC (both from Bachem).
AMC=7-Amino-4-Methyl-Coumarin.
Excitation 360 nm, Emission 465 nm.
Enzyme is added to the substance dilutions in 96-well microtitre plates and the reaction is started with substrate. […] IC50 are calculated by standard methods.
Inhibition of human Cat S, mouse Cat S, human Cat K, human Cat B, human Cat L and mouse Cat L have been measured separately.
`N#CC1(NC(=O)[C@@H]2C[C@@H](S(=O)(=O)c3ccc(-c4cc[n+]([O-])c(Cl)c4)cc3C(F)(F)F)CN2C(=O)C2(C(F)(F)F)CC2)CC1` [Example 1, (2S,4R)-4-[4-(2-Chloro-1-oxy-pyridin-4-yl)-2-trifluoromethyl-benzenesulfonyl]-1-(1-trifluoromethyl-cyclopropanecarbonyl)-pyrrolidine-2-carboxylic acid (1-cyano-cyclopropyl)-amide] registered a half-maximal inhibitory concentration (IC50) of 0.968 nM. In turn, `Cc1cc(-c2ccc(S(=O)(=O)[C@@H]3C[C@@H](C(=O)NC4(C#N)CC4)N(C(=O)C4(C(F)(F)F)CC4)C3)c(C(F)(F)F)c2)cc[n+]1[O-]` [Example 2, (2S,4R)-4-[4-(2-Methyl-1-oxy-pyridin-4-yl)-2-trifluoromethyl-benzenesulfonyl]-1-(1-trifluoromethyl-cyclopropanecarbonyl)-pyrrolidine-2-carboxylic acid (1-cyano-cyclopropyl)-amide] yielded an IC50 of 0.77 nM. `Cn1nc(C(F)(F)F)cc1-c1ccc(S(=O)(=O)[C@@H]2C[C@@H](C(=O)NC3(C#N)CC3)N(C(=O)C3(C(F)(F)F)CC3)C2)c(C(F)(F)F)c1` [Example 3, (2S,4R)-4-[4-(2-Methyl-5-trifluoromethyl-2Hpyrazol-3-yl)-2-trifluoromethyl-benzenesulfonyl]-1-(1-trifluoromethyl-cyclopropanecarbonyl)-pyrrolidine-2-carboxylic acid (1-cyano-cyclopropyl)-amide] yielded an IC50 of 1.02 nM.

Turning to `N#CC1(NC(=O)[C@@H]2C[C@@H](S(=O)(=O)c3ccc(-c4ccccc4OC(F)(F)F)cc3C(F)(F)F)CN2C(=O)C2(C(F)(F)F)CC2)CC1` [Example 4, (2S,4R)-4-(2′-Trifluoromethoxy-3-trifluoromethyl-biphenyl-4-sulfonyl)-1-(1-trifluoromethyl-cyclopropanecarbonyl)-pyrrolidine-2-carboxylic acid (1-cyano-cyclopropyl)-amide], the midpoint of inhibition, the IC50, lay at 0.978 nM. The figure for `CCOc1ccccc1-c1ccc(S(=O)(=O)[C@@H]2C[C@@H](C(=O)NC3(C#N)CC3)N(C(=O)C3(C(F)(F)F)CC3)C2)c(C(F)(F)F)c1` [Example 5, (2S,4R)-4-(2′-Ethoxy-3-trifluoromethyl-biphenyl-4-sulfonyl)-1-(1-trifluoromethyl-cyclopropanecarbonyl)-pyrrolidine-2-carboxylic acid (1-cyano-cyclopropyl)-amide] is 0.836 nM; for `N#CC1(NC(=O)[C@@H]2C[C@@H](S(=O)(=O)c3ccc(-c4ccccc4OC4CC4)cc3C(F)(F)F)CN2C(=O)C2(C(F)(F)F)CC2)CC1` [Example 6, (2S,4R)-4-(2′-Cyclopropoxy-3-trifluoromethyl-biphenyl-4-sulfonyl)-1-(1-trifluoromethyl-cyclopropanecarbonyl)-pyrrolidine-2-carboxylic acid (1-cyano-cyclopropyl)-amide] it is 1.06 nM. The molecule `N#CC1(NC(=O)[C@@H]2C[C@@H](S(=O)(=O)c3ccc(OC4CCC4)cc3C(F)(F)F)CN2C(=O)C2(C(F)(F)F)CC2)CC1` [Example 7, (2S,4R)-4-(4-Cyclobutoxy-2-trifluoromethyl-benzenesulfonyl)-1-(1-trifluoromethyl-cyclopropanecarbonyl)-pyrrolidine-2-carboxylic acid (1-cyano-cyclopropyl)-amide] registered an IC50 of 0.91 nM. The same measure for `Cc1nnn(-c2ccc(S(=O)(=O)[C@@H]3C[C@@H](C(=O)NC4(C#N)CC4)N(C(=O)C4(C(F)(F)F)CC4)C3)c(Cl)c2)n1` [Example 8, (2S,4R)-4-(2-chloro-4-(5-methyl-2H-tetrazol-2-yl)phenylsulfonyl)-N-(1-cyanocyclopropyl)-1-(1-(trifluoromethyl)cyclopropanecarbonyl)pyrrolidine-2-carboxamide]: 0.533 nM; for `Cc1nnnn1-c1ccc(S(=O)(=O)[C@@H]2C[C@@H](C(=O)NC3(C#N)CC3)N(C(=O)C3(C(F)(F)F)CC3)C2)c(Cl)c1` [Example 9, (2S,4R)-4-(2-chloro-4-(5-methyl-1H-tetrazol-1-yl)phenylsulfonyl)-N-(1-cyanocyclopropyl)-1-(1-(trifluoromethyl)cyclopropanecarbonyl)pyrrolidine-2-carboxamide]: 0.683 nM; for `N#CC1(NC(=O)[C@@H]2C[C@@H](S(=O)(=O)c3ccc(-n4cncn4)cc3Cl)CN2C(=O)C2(C(F)(F)F)CC2)CC1` [Example 10, (2S,4R)-4-(2-chloro-4-(1H-1,2,4-triazol-1-yl)phenylsulfonyl)-N-(1-cyanocyclopropyl)-1-(1-(trifluoromethyl)cyclopropanecarbonyl)pyrrolidine-2-carboxamide]: 0.686 nM. Molecule `N#CC1(NC(=O)[C@@H]2C[C@@H](S(=O)(=O)c3ccc(-n4cncn4)cc3-n3cncn3)CN2C(=O)C2(C(F)(F)F)CC2)CC1` [Example 11, (2S,4R)—N-(1-cyanocyclopropyl)-4-(2,4-di(1H-1,2,4-triazol-1-yl)phenylsulfonyl)-1-(1-(trifluoromethyl)cyclopropanecarbonyl)pyrrolidine-2-carboxamide] displayed an IC50 of 12.6 nM.

`N#CC1(NC(=O)[C@@H]2C[C@@H](S(=O)(=O)c3ccc(-n4nccn4)cc3Cl)CN2C(=O)C2(C(F)(F)F)CC2)CC1` [Example 12, (2S,4R)-4-(2-chloro-4-(2H-1,2,3-triazol-2-yl)phenylsulfonyl)-N-(1-cyanocyclopropyl)-1-(1-(trifluoromethyl)cyclopropanecarbonyl)pyrrolidine-2-carboxamide] came in with an IC50 of 0.56 nM. This IC50 lies about 22-fold lower than the previous one. `N#CC1(NC(=O)[C@@H]2C[C@@H](S(=O)(=O)c3ccc(-n4ccnn4)cc3Cl)CN2C(=O)C2(C(F)(F)F)CC2)CC1` [Example 13, (2S,4R)-4-(2-chloro-4-(1H-1,2,3-triazol-1-yl)phenylsulfonyl)-N-(1-cyanocyclopropyl)-1-(1-(trifluoromethyl)cyclopropanecarbonyl)pyrrolidine-2-carboxamide] had a half-maximal inhibitory concentration (IC50) of 0.568 nM. The figure for `Cc1ncn(-c2ccc(S(=O)(=O)[C@@H]3C[C@@H](C(=O)NC4(C#N)CC4)N(C(=O)C4(C(F)(F)F)CC4)C3)c(Cl)c2)n1` [Example 14, (2S,4R)-4-(2-chloro-4-(3-methyl-1H-1,2,4-triazol-1-yl)phenylsulfonyl)-N-(1-cyanocyclopropyl)-1-(1-(trifluoromethyl)cyclopropanecarbonyl)pyrrolidine-2-carboxamide] is 0.529 nM.

For the molecule `Cc1nc(C)n(-c2ccc(S(=O)(=O)[C@@H]3C[C@@H](C(=O)NC4(C#N)CC4)N(C(=O)C4(C(F)(F)F)CC4)C3)c(Cl)c2)n1` [Example 15, (2S,4R)-4-(2-chloro-4-(3,5-dimethyl-1H-1,2,4-triazol-1-yl)phenylsulfonyl)-N-(1-cyanocyclopropyl)-1-(1-(trifluoromethyl)cyclopropanecarbonyl)pyrrolidine-2-carboxamide], the 50% inhibitory concentration (IC50) stood at 0.61 nM. With `N#CC1(NC(=O)[C@@H]2C[C@@H](S(=O)(=O)c3ccc(-n4cnc(Cl)n4)cc3Cl)CN2C(=O)C2(C(F)(F)F)CC2)CC1` [Example 16, (2S,4R)-4-(2-chloro-4-(3-chloro-1H-1,2,4-triazol-1-yl)phenylsulfonyl)-N-(1-cyanocyclopropyl)-1-(1-(trifluoromethyl)cyclopropanecarbonyl)pyrrolidine-2-carboxamide], the half-maximal inhibitory concentration (IC50) amounted to 0.563 nM.

The molecule `N#CC1(NC(=O)[C@@H]2C[C@@H](S(=O)(=O)c3ccc(-n4ccc(C(F)(F)F)n4)cc3Cl)CN2C(=O)C2(C(F)(F)F)CC2)CC1` [Example 17, (2S,4R)-4-(2-chloro-4-(3-(trifluoromethyl)-1H-pyrazol-1-yl)phenylsulfonyl)-N-(1-cyanocyclopropyl)-1-(1-(trifluoromethyl)cyclopropanecarbonyl)pyrrolidine-2-carboxamide] registered a concentration for half-maximal inhibition (IC50) of 0.704 nM. This IC50 and that of the molecule before are within 1.5-fold of each other. The same measure for `Cc1cc(C(F)(F)F)nn1-c1ccc(S(=O)(=O)[C@@H]2C[C@@H](C(=O)NC3(C#N)CC3)N(C(=O)C3(C(F)(F)F)CC3)C2)c(Cl)c1` [Example 18, (2S,4R)-4-(2-chloro-4-(5-methyl-3-(trifluoromethyl)-1H-pyrazol-1-yl)phenylsulfonyl)-N-(1-cyanocyclopropyl)-1-(1-(trifluoromethyl)cyclopropanecarbonyl)pyrrolidine-2-carboxamide]: 0.98 nM. The same measure for `Cc1cc(-n2ccc(C(F)(F)F)n2)ccc1S(=O)(=O)[C@@H]1C[C@@H](C(=O)NC2(C#N)CC2)N(C(=O)C2(C(F)(F)F)CC2)C1` [Example 19, (2S,4R)—N-(1-cyanocyclopropyl)-4-(2-methyl-4-(3-(trifluoromethyl)-1H-pyrazol-1-yl)phenylsulfonyl)-1-(1-(trifluoromethyl)cyclopropanecarbonyl)pyrrolidine-2-carboxamide]: 1.43 nM; for `N#CC1(NC(=O)[C@@H]2C[C@@H](S(=O)(=O)c3ccc(-c4ccccc4OC(F)(F)F)cc3)CN2C(=O)C2(C(F)(F)F)CC2)CC1` [Example 20, (2S,4R)—N-(1-cyanocyclopropyl)-4-(2′-(trifluoromethoxy)biphenyl-4-ylsulfonyl)-1-(1-(trifluoromethyl)cyclopropanecarbonyl)pyrrolidine-2-carboxamide]: 5.72 nM; for `N#CC1(NC(=O)[C@@H]2C[C@@H](S(=O)(=O)c3ccc(OC4CCC4)cc3Cl)CN2C(=O)C2(C(F)(F)F)CC2)CC1` [Example 21, (2S,4R)-4-(2-chloro-4-cyclobutoxyphenylsulfonyl)-N-(1-cyanocyclopropyl)-1-(1-(trifluoromethyl)cyclopropanecarbonyl)pyrrolidine-2-carboxamide]: 1.07 nM.
